From patent publication US12636386B2, “Compositions and methods for the treatment and imaging of cancer” (BOARD OF REGENTS OF THE UNIVERSITY OF NEBRASKA, priority 2021, dated 2026)
Where “and” joins values, the source holds several entries; their conditions need not be identical. Equal values may be shown once. Read-outs that look alike come from different tables or passages of the source.

Tests used:
[1] = from Kortylewicz, et al. (2020) J Med Chem; cited from earlier work
[2] = from Kortylewicz, et al. (2020) J Med Chem; cited from earlier work; remark: listed apart in the source
[3] = biological target: T1, norepinephrine transporter (Homo sapiens, UniProt P23975); test: Competitive uptake assay with nonradioactive MIBG in BE(2)-C cells; format: cell-based; conditions: 50 μM nonradioactive MIBG; 25.8±0.7 kBq/ml GPAID; exponentially growing BE cell monolayers
T1 construct: These cells represent a well-established robust model for the NET-specific MIBG uptake; endogenous in cells; host or cells: SK (SK-N-SH) and BE (BE(2)-C) neuroblastoma cells, exponentially growing monolayers
T1 sequence (P23975 whole entry): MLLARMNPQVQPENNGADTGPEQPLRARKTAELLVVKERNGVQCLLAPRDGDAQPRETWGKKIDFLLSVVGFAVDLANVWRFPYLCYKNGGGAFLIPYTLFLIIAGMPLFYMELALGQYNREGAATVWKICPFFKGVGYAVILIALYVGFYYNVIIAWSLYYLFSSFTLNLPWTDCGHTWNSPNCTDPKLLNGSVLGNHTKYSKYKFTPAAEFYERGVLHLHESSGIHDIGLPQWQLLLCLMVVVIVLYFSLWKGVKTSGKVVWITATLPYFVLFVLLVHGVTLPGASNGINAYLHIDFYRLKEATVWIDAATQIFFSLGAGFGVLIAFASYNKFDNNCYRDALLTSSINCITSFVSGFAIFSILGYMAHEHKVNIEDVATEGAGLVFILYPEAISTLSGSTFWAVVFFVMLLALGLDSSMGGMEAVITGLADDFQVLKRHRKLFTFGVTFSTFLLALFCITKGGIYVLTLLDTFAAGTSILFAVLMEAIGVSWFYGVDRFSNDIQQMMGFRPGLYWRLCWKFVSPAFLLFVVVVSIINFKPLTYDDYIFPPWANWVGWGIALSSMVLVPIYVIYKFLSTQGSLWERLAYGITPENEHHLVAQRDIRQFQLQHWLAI
Protocol: (§1) Cells were plated into T25 flasks and allowed to grow until ˜60%-70% confluent. Fresh medium (3 ml) was added to one set of flasks (n=4 per time). To the second set of flasks (n=4 per time), fresh medium (3 ml) containing 100-μM nonradioactive MIBG was added. All cells were returned to the incubator for 30 minutes, after which time 3 ml of medium containing GPAID (51.5±1.4 kBq/ml) was added to produce the final concentration of 50-μM MIBG and 25.8±0.7 kBq/ml GPAID. Cells were returned to the incubator for additional 1, 24, and 48 hours. At designated times, media were removed, monolayer washed 1× with full medium, 2× with PBS, and SK and BE cells were harvested with the nonenzymatic cell dissociation solution (Sigma-Aldrich). N1E cells were harvested by flushing the monolayer with spent media. Cell numbers were determined, and their radioactive content measured in a gamma counter. The whole cell uptake was calculated on terms of MBq per cells. The clonogenic survival was calculated as the ratio of the number of colonies produced by cells treated with nonradioactive MIBG and GPAID to the number of colonies produced by cells treated with GPAID only. The cell survival at 24 hours was expressed as the ratio of viable cells in treatment groups to cells in untreated controls.

[4] = biological target: T1, norepinephrine transporter; test: Competitive uptake assay with nonradioactive MIBG in SK-N-SH cells; format: cell-based; conditions: 50 μM nonradioactive MIBG; 25.8±0.7 kBq/ml GPAID; exponentially growing SK cell monolayers
Protocol: as §1

NET = NET (Homo sapiens, UniProt P23975); conditions: Smets, et al. (1989) Cancer Res.; cited from earlier work
Sequence of NET (P23975 whole entry): as above

BE(2)-C cells [5] = test: Clonogenic survival of BE(2)-C cells; format: cell-based, human; conditions: on average
Protocol: as §1

N1E-115 cells = test: Subcellular distribution in N1E-115 cells; format: cell-based, murine
From the text: (§2) Two human NB cell lines SK-N-SH (SK) and BE(2)-C(BE) and one murine NB cell line N1E-115 (N1E) were purchased from the American Type Culture Collection (ATCC; Manassas, VA). Cells were maintained according to the vendor's instructions. For animal studies, cells were harvested when ˜70% confluent and cryopreserved until ready to use.
(§3) Established protocols were used in these experiment (Kortylewicz, et al. (2020) J Med Chem., 63:2051-2073; Baranowska-Kortylewicz, et al. (1994) J Label Compd Radiopharm., 34(6):513-521; Kortylewicz, et al. (2009) J Med Chem., 52(16):5124-5143). Briefly, NB cells plated in TPP T25 flasks (Midwest Scientific, Valley Park, MO) at 5×10^5 cells per flask were maintained in culture for 48-72 hours, depending on the doubling time of the cell line, until 60%-70% confluent. For time-dependent uptake studies, GPAID was added to the growth medium to produce the average concentrations of 28.2±5.5, 27.6±2.8, and 30.7±1.0 kBq/ml in SK, BE, and N1E cells, respectively. Radioactive medium was removed after 1, 5, 16, 24, and 48 hours in culture (n=4 per time). Cells were harvested by scraping and enumerated using Cellometer (Nexcelom Bioscience, Lawrence, MA). Cell suspensions were centrifuged for 10 minutes at 1500 rpm; cell pellets resuspended in ice-cold PBS, transferred into microfuge tubes, and centrifuged at 500×g for 10 minutes. The radioactive content of cell pellets was measured in a gamma counter. The cellular uptake was calculated in terms of MBq per cell. For subcellular fractionation experiments, NB cells grown as monolayers were treated with GPAID and processed as described (Kortylewicz, et al. (2020) J Med Chem., 63:2051-2073). In the concentration-dependent uptake experiments, GPAID in the appropriate medium at several concentrations was added to the cell monolayers. Cells were processed after 1-hour incubation. Radioactive medium was removed, and monolayers were washed once with full nonradioactive medium and PBS. Cells were harvested and enumerated, and their radioactive content was measured.

[6] = Biodistribution at necropsy 14 days after the dose; format: in vivo, mice; conditions: necropsy 14 days after the IP dose
From the text: (§4) Four-week-old NCr nu/nu mice, male (n=10) and female (n=10), received IP implant of 5×10^6 N1E cells. One week later, mice were randomly assigned via a lottery to either control or treatment group. Control mice were given IP injection of the vehicle. Mice in the therapy group received a bolus IP injection of 3.64±0.10 MBq GPAID per mouse (˜145 MBq/kg body weight [bw]). Triplicate aliquots of the injected dose (ID) were counted in a gamma counter. Syringes containing the dose and syringes after the injection were weighed on the analytical balance to determine ID. Whole body radioactivity was also measured immediately after each injection to confirm ID. Necropsy was performed at the termination of the experiment. Blood was collected via cardiac puncture. Aliquots were reserved for determination of hemoglobin (Hb; HemoCue, Ängelholm, Sweden) and hematocrit (Hct).

NB cells = test: Survival of NB cells, trypan blue exclusion method followed by clonogenic assay; format: cell-based, human; conditions: trypan blue exclusion and clonogenic assay; 25.8±0.7 kBq/ml
Protocol: as §1

BE(2)-C cells [7] = test: Subcellular distribution in BE(2)-C cells; format: cell-based, human
From the text: as §2, §3

[8] = Ex vivo stability in human serum; format: in vitro ADME; conditions: 37° C., 5% CO2; average±SE; monoexponential fit of percent intact compound
Protocol: (§5) Aliquots of GPAID (1.4-2.3 MBq) in 120 μl of 25% EtOH/PB (10-mM, pH 6.1) were added to 6.88-ml phosphate-buffered saline (PBS), cell culture media, or serum (mouse, pig, or human). Mixtures were briefly vortexed and incubated at 37° C. and 5% CO2. At selected times, 1 ml of GPAID incubation mixture was withdrawn, 1-ml MeCN was added, and the mixture was vortexed and centrifuged at 2000 rpm for 15 minutes at 4° C. The supernatant was removed, and the radioactivity measured. Supernatant (250-500 μl) were acidified to pH˜6 with 0.05-N TFA (2-8 μl). The excess of MeCN was evaporated with a stream of nitrogen and 100 μl of water added. This mixture was passed through a 0.22-μm filter and 100 μl (111-185 kBq) injected onto the HPLC system. HPLC analysis of extracts proceeded on the ACE C18 100-A column ([…], 4.6×250 mm) eluted at 0.8 ml/minute with a linear gradient of MeCN from 10% to 95% over 45 minutes and kept at 95% MeCN for 15 minutes the radioactivity detection (Bioscan). Both solvents contained 0.07% TFA (v/v).
(§6) Ex vivo stability of GPAID was assessed in PBS, cell culture medium without NB cells, and in the presence of NB cells and in human, mouse, and porcine sera after various times of incubation. […] Half-lives in sera were calculated from the area under the peak of the intact GPAID recovered from the incubation mixtures plotted as a function of the incubation time. […]

[9] = Ex vivo stability in pig serum; format: in vitro ADME; conditions: 37° C., 5% CO2; average±SE; monoexponential fit of percent intact compound
Protocol: as §5, §6

Stability in PBS = format: physicochemical; conditions: 37° C.
Protocol: as §5, §6

[10] = Stability in cell culture medium without NB cells; format: physicochemical; conditions: 5% CO2
Protocol: as §5, §6

N1E-115 tumors = test: Therapy of mice bearing IP N1E allografts; format: in vivo; conditions: single IP dose 3.64±0.10 MBq per mouse 1 week after implant; 14 days after treatment; NT controls 2.61±0.57 g; p=0.03
Protocol: Research involving animals was performed in accordance with the UNMC institutional guidelines and protocols as defined by the Institutional Animal Care and Use Committee for US institutions. Athymic NCr nude mice (spontaneous mutant) were purchased from Taconic (Rensselaer, NY). The intraperitoneal route […] was used for the tumor implant and dose administration. All experiments were conducted in mice of both genders 4 to 8 weeks old.
as §4, with “Aliquots were reserved for determination of hemoglobin (Hb; HemoCue, Ängelholm, Sweden) and hematocrit (Hct).” left out
All variables are expressed as average±standard deviation or ±standard error. The cellular uptake, cell survival, and other biological properties were analyzed using two-sided Student's t test. […]

SK-N-SH cells [11] = test: Radioactive species in medium recovered from NB cell monolayers cultured with GPAID; format: cell-based, human
Protocol: as §5
Ex vivo stability of GPAID was assessed in PBS, cell culture medium without NB cells, and in the presence of NB cells and in human, mouse, and porcine sera after various times of incubation. The analytical details are provided hereinabove. Half-lives in sera were calculated from the area under the peak of the intact GPAID recovered from the incubation mixtures plotted as a function of the incubation time. The degradation curves followed the first-order kinetics. Data were fitted into the monoexponential equations with the intercept set at 100% (FIG. 2A). In a typical experiment, a final concentration of GPAID in serum approximated radioactivity levels of ^131IMIBG in blood of children receiving therapeutic doses (Pandit-Taskar, et al. (2017) Clin Nucl Med., 42(10):741-748; Matthay, et al. (1998) J Clin Oncol., 16(1):229-236). 0

[12] = system: BE(2)-C and SK-N-SH cells; test: Time- and concentration-dependent cellular uptake, statements covering both NB cell lines; format: cell-based, human
From the text: as §2, §3

SK-N-SH cells [13] = test: Subcellular distribution in SK-N-SH cells; format: cell-based, human
From the text: as §2, §3

[14] = Ex vivo stability in mouse serum; format: in vitro ADME; conditions: mouse serum contains esterases including carboxylesterase
Protocol: as §5, §6

[15] = monoprotonated cation at physiological pH; cited from earlier work
[16] = Hemoglobin and hematocrit in treated tumor-bearing mice; format: in vivo; conditions: mice treated with 3.64±0.10 MBq GPAID IP; termination necropsy
From the text: as §4

[17] = N1E cells, 24-hour incubation, average 29±3 kBq/ml
[18] = 1 hour with GPAID, washed, additional 4 hours in nonradioactive medium
[19] = incubated with exponentially growing NB cell monolayers for 24 hours

For `N=C(N)NCCCCCC(=O)O[C@H]1C[C@H](n2cc([125I])c(=O)[nH]c2=O)O[C@@H]1CO` [IDG, 5-[^125I]iodo-3′-O-(ε-guanidinohexanoyl)-2′-deoxyuridine], the “Half-life in pig serum” value [1] is listed as 3.6 ± 0.1 h and the “Half-life in human serum” value [2] is listed as 2.3 ± 0.1 h and ~2.3 h.
For `N=C(N)NCc1cccc([131I])c1` [MIBG, metaiodobenzylguanidine], the “Inhibition of GPAID uptake” value [3] is listed as 85%, the “Inhibition of GPAID uptake” value [4] is listed as 70% and the “Concentration at which uptake begins to saturate” value (NET) is listed as greater than 500 nM. The “Concentration up to which uptake is linear” value (NET) was roughly 100 nM and the “Colonies from cells exposed to nonradioactive MIBG alongside GPAID compared with GPAID alone” value (BE(2)-C cells [5]; 50-μM MIBG, 25.8±0.7 kBq/ml GPAID) was 3 ×.
For `N=C(N)NCc1cccc([125I])c1` [^125IMIBG], the “Recovery in the cytoplasmic fraction” value (N1E-115 cells; N1E cells, 24-hour incubation) was “majority”, the “^125I recovered in DNA (DNA pellet)” value (N1E-115 cells; [17]) was 0% and the “^125I retrieved in the soluble nuclear fraction” value (N1E-115 cells; [17]) was roughly 19%.
With “(R)-(−)-5-[^125I]Iodo-3′-O-[2-(ε-guanidinohexanoyl)-2-phenylacetyl]-2′-deoxyuridine [GPAID]” the “Residual level in the adrenal glands” value [6] was 0.034±0.016 % ID/g, the “Radioactivity retention in tissues” value ([6]; all tissues) was “only marginal radioactivity retention” and the “Survival of NB cells treated with GPAID alone” value (NB cells) was “significant reduction in survival”. For the same molecule, the “Total cellular radioactivity associated with DNA” value (BE(2)-C cells [7]; [18]) was greater than 95%, the “Total recovered ^125I in DNA” value (BE(2)-C cells [7]; after 1 hour with GPAID) was 32% and the “^125I associated with DNA” value (BE(2)-C cells [7]; at 24 hours) was “practically all”. For the same molecule, the “Half-life in human serum” value [8] was 7.9 ± 0.7 h, the “Half-life in pig serum” value [9] was 5.8 ± 2.1 h and the “^125I recovered in DNA (DNA pellet)” value (N1E-115 cells; [17]) was greater than 99%. For the same molecule, the “^125I activity in the nuclei bound to DNA” value (N1E-115 cells; N1E-115 cells, 24-hour treatment, 29±3 kBq/ml (FIG. 3E)) was roughly 100%, the “Stability in PBS” value (Stability in PBS) was “stable” and the “Stability in cell culture in the absence of NB cells” value ([10]; 37° C.) was “stable”. For the same molecule, the “Intact GPAID remaining in cell culture medium without cells” value ([10]; 24 hours at 37° C.) was greater than 90%, the “Average tumor weight at necropsy” value (N1E-115 tumors) was 0.88 ± 0.54 g and the “Total radioactivity in the form of either free ^125I or ^125I-uracil in medium” value (SK-N-SH cells [11]; SK-N-SH cells cultured with GPAID for 24 hours at 37° C., 5% CO2 (FIG. 2D)) was roughly 30%. For the same molecule, the “Intact GPAID in recovered media” value (SK-N-SH cells [11]; [19]) was roughly 42%, the “^125IUdR in recovered media” value (SK-N-SH cells [11]; [19]) was roughly 28% and the “^125I disintegrations accumulated in 24 hours” value ([12]; 1-hour exposure, all tested concentrations >0.015 MBq/ml) was greater than 20 disintegrations per cell. The “Dependence of cellular radioactivity on extracellular concentration” value ([12]; 1-hour treatment, entire tested range up to 200 kBq/ml (2.45×10^−9 M)) was “directly proportional to the extracellular concentration of GPAID”, the “Cellular uptake in BE cells compared with SK cells” value ([12]; 1 hour incubation, washed and processed immediately) was “nearly identical” and the “Total cellular radioactivity associated with DNA” value (SK-N-SH cells [13]; [18]) was roughly 75%. The “Total recovered ^125I in DNA” value (SK-N-SH cells [13]; after 1 hour with GPAID) was roughly 22%, the “^125I associated with DNA” value (SK-N-SH cells [13]; at 24 hours) was “practically all” and the “Stability in mouse serum” value [14] was “not stable”. For the same molecule, the pKa [15] was roughly 12, the “BE cells that survived, retained reproductive integrity and formed colonies” value (BE(2)-C cells [5]; GPAID extracellular concentration 25.8±0.7 kBq/ml) was 32% and the HCt level [16] was “within the normal range values”. For the same molecule, the Hb level [16] was “within the normal range values”.
